Data from ChEMBL document CHEMBL2010666, “A resveratrol analog, phoyunbene B, induces G2/M cell cycle arrest and apoptosis in HepG2 liver cancer cells” (Bioorg Med Chem Lett, 2012).
Activity calls are given as the source filed them. The calls are words filed in the database; no cut-off is given here.

Key:
HepG2 [1] = assay: Cytotoxicity against human HepG2 cells after 24 hrs by MTT assay; format: functional, cell-based; conditions: HepG2, 24 h
[2] = Cytotoxicity against human QSG7701 cells after 24 hrs by MTT assay; format: cell-based; conditions: QSG7701, 24 h
[3] = Cytotoxicity against human FHCC-98 cells after 24 hrs by MTT assay; format: functional, cell-based; conditions: FHCC-98, 24 h
HepG2 [4] = assay: Induction of apoptosis in human HepG2 cells assessed as increase in caspase 3 activation using Ac-DEVD-pNA as substrate at 10 uM after 12 hrs by colorimetry relative to control; format: functional
HepG2 [5] = assay: Cell cycle arrest in human HepG2 cells assessed as accumulation at G0/G1 phase at 30 uM after 24 hrs by FACS analysis (reference value: 53.7 %); format: functional
HepG2 [6] = assay: Cell cycle arrest in human HepG2 cells assessed as accumulation at G2/M phase at 30 uM after 24 hrs by FACS analysis (reference value: 16.8 %); format: functional
HepG2 [7] = assay: Cell cycle arrest in human HepG2 cells assessed as accumulation at S phase at 30 uM after 24 hrs by FACS analysis (reference value: 29.5 %); format: functional
HepG2 [8] = assay: Cell cycle arrest in human HepG2 cells assessed as accumulation at subG0 phase at 30 uM after 24 hrs by FACS analysis relative to control; format: functional
HepG2 [9] = assay: Cell cycle arrest in human HepG2 cells assessed as accumulation at G0/G1 phase at 30 uM after 12 hrs by FACS analysis (reference value: 53.7 %); format: functional
HepG2 [10] = assay: Cell cycle arrest in human HepG2 cells assessed as accumulation at G2/M phase at 30 uM after 12 hrs by FACS analysis (reference value: 16.8 %); format: functional
HepG2 [11] = assay: Cell cycle arrest in human HepG2 cells assessed as accumulation at S phase at 30 uM after 12 hrs by FACS analysis (reference value: 29.5 %); format: functional
HepG2 [12] = assay: Cell cycle arrest in human HepG2 cells assessed as accumulation at subG0 phase at 30 uM after 12 hrs by FACS analysis relative to control; format: functional
HepG2 [13] = assay: Cell cycle arrest in human HepG2 cells assessed as accumulation at G0/G1 phase at 30 uM after 32 hrs by FACS analysis (reference value: 53.7 %); format: functional
HepG2 [14] = assay: Cell cycle arrest in human HepG2 cells assessed as accumulation at G2/M phase at 30 uM after 32 hrs by FACS analysis (reference value: 16.8 %); format: functional
HepG2 [15] = assay: Cell cycle arrest in human HepG2 cells assessed as accumulation at S phase at 30 uM after 32 hrs by FACS analysis (reference value: 29.5 %); format: functional
HepG2 [16] = assay: Cell cycle arrest in human HepG2 cells assessed as accumulation at subG0 phase at 30 uM after 32 hrs by FACS analysis relative to control; format: functional
HepG2 [17] = assay: Upregulation of cyclin B1 in human HepG2 cells at 30 uM after 12 to 32 hrs by Western blotting analysis; format: functional, cell-based
HepG2 [18] = assay: Upregulation of cyclin B1 in human HepG2 cells at 30 to 50 uM after 24 hrs by Western blotting analysis; format: functional, cell-based
HepG2 [19] = assay: Upregulation of Cdc-2 in human HepG2 cells at 30 uM after 12 to 32 hrs by Western blotting analysis; format: functional, cell-based
HepG2 [20] = assay: Upregulation of Cdc-2 in human HepG2 cells at 30 to 50 uM after 24 hrs by Western blotting analysis; format: functional, cell-based
HepG2 [21] = assay: Induction of apoptosis in human HepG2 cells assessed as cell shrinkage at 30 uM after 24 hrs by phase-contrast microscopy; format: functional, cell-based
HepG2 [22] = assay: Induction of apoptosis in human HepG2 cells assessed as Bax activation at 30 uM after 24 hrs by immunostaining; format: functional, cell-based
HepG2 [23] = assay: Induction of apoptosis in human HepG2 cells assessed as nuclear fragmentation at 30 uM after 24 hrs by immunostaining; format: functional, cell-based
HepG2 [24] = assay: Induction of apoptosis in human HepG2 cells assessed as chromatin condensation at 30 uM after 24 hrs by immunostaining; format: functional, cell-based
[25] = Induction of apoptosis in human QSG7701 cells assessed as Bax activation at 30 uM after 24 hrs by immunostaining; format: cell-based; conditions: qsg7701, 24 h
HepG2 [26] = assay: Induction of apoptosis in human HepG2 cells assessed as PARP cleavage at 30 uM by Western blotting analysis; format: functional, cell-based; conditions: TDE = time-dependent effect
HepG2 [27] = assay: Induction of apoptosis in human HepG2 cells assessed as increase in caspase 3 activation using Ac-DEVD-pNA as substrate at 30 uM after 12 hrs by colorimetry relative to control; format: functional
[28] = Induction of apoptosis in human QSG7701 cells assessed as increase in caspase 3 activation using Ac-DEVD-pNA as substrate at 30 uM after 12 hrs by colorimetry relative to control; format: cell-based; conditions: qsg7701, 12 h
HepG2 [29] = assay: Induction of apoptosis in human HepG2 cells assessed as up-regulation of Bax at 30 uM by Western blotting analysis; format: functional, cell-based; conditions: TDE = time-dependent effect
HepG2 [30] = assay: Induction of apoptosis in human HepG2 cells assessed as down-regulation of Bcl-2 at 30 uM by Western blotting analysis; format: functional, cell-based; conditions: TDE = time-dependent effect
FHCC-98 [31] = assay: Inhibition of human FHCC-98 cell adhesion to matrigel-coated plates at 50 uM after 30 to 60 mins by crystal violet staining-based spectrophotometry; format: functional
FHCC-98 [32] = assay: Inhibition of human FHCC-98 cell adhesion to matrigel-coated plates at 100 uM after 30 to 60 mins by crystal violet staining-based spectrophotometry; format: functional
HepG2 [33] = assay: Cell cycle arrest in human HepG2 cells assessed as accumulation at G2/M phase at 30 uM; format: functional, cell-based; conditions: TDE = time-dependent effect
HepG2 [34] = assay: Cell cycle arrest in human HepG2 cells assessed as accumulation at G0/G1 phase at 50 uM after 24 hrs by FACS analysis (reference value: 53.7 %); format: functional
HepG2 [35] = assay: Cell cycle arrest in human HepG2 cells assessed as accumulation at G2/M phase at 50 uM after 24 hrs by FACS analysis (reference value: 16.8 %); format: functional
HepG2 [36] = assay: Cell cycle arrest in human HepG2 cells assessed as accumulation at S phase at 50 uM after 24 hrs by FACS analysis (reference value: 29.5 %); format: functional
HepG2 [37] = assay: Cell cycle arrest in human HepG2 cells assessed as accumulation at subG0 phase at 50 uM after 24 hrs by FACS analysis relative to control; format: functional

Oc1cccc(/C=C/c2cc(O)cc(O)c2)c1
IC50 (HepG2 [1]): 95.8 µM
IC50 [2]: > 100 µM
IC50 [3]: > 100 µM

CC[C@@]1(O)C(=O)OCc2c1cc1n(c2=O)Cc2cc3ccccc3nc2-1 [CAMPTOTHECIN]
IC50 (HepG2 [1]): 6.4 µM
IC50 [2]: 18.3 µM
IC50 [3]: 15.2 µM
fold change (FC) (HepG2 [4]): 4

COc1cc(O)cc(/C=C/c2ccc(OC)c(O)c2OC)c1 [PHOYUNBENE A]
IC50 (HepG2 [1]): > 100 µM
IC50 [2]: > 100 µM
IC50 [3]: > 100 µM

COc1cc(O)cc(/C=C/c2ccc(O)c(OC)c2OC)c1 [PHOYUNBENE B]
IC50 (HepG2 [1]): 37.1 µM
IC50 [2]: > 100 µM
IC50 [3]: 45.8 µM
Activity (HepG2 [5]): 17.7%
Activity (HepG2 [6]): 62.8%
Activity (HepG2 [7]): 13%
Activity (HepG2 [8]): 6.5%
Activity (HepG2 [9]): 38.2%
Activity (HepG2 [10]): 41.3%
Activity (HepG2 [11]): 20.5%
Activity (HepG2 [12]): 0%
Activity (HepG2 [13]): 4.6%
Activity (HepG2 [14]): 75.2%
Activity (HepG2 [15]): 7.9%
Activity (HepG2 [16]): 12.3%
Activity (HepG2 [17]): Active
Activity (HepG2 [18]): Active
Activity (HepG2 [19]): inactive
Activity (HepG2 [20]): inactive
Activity (HepG2 [21]): Active
Activity (HepG2 [22]): Active
Activity (HepG2 [23]): Active
Activity (HepG2 [24]): Active
Activity [25]: Non-toxic
Activity (HepG2 [26]): tde
fold change (FC) (HepG2 [27]): 5
Activity [28]: Non-toxic
Activity (HepG2 [29]): tde
Activity (HepG2 [30]): tde
inhibition (FHCC-98 [31]): Active
inhibition (FHCC-98 [32]): Active
Activity (HepG2 [33]): tde

COc1cc(O)cc(/C=C/c2cccc(O)c2OC)c1 [PHOYUNBENE C]
IC50 (HepG2 [1]): 90.8 µM
IC50 [2]: > 100 µM
IC50 [3]: > 100 µM

COc1cc(O)cc(/C=C/c2cccc(OC)c2OC)c1 [PHOYUNBENE D]
IC50 (HepG2 [1]): > 100 µM
IC50 [2]: > 100 µM
IC50 [3]: 80.5 µM

COc1c(O)cccc1/C=C/c1cc(O)cc(O)c1 [PHOYUNBENE E]
IC50 (HepG2 [1]): > 100 µM
IC50 [2]: > 100 µM
IC50 [3]: > 100 µM

COc1cc(O)cc(/C=C/c2cccc(O)c2O)c1 [PHOYUNBENE F]
IC50 (HepG2 [1]): > 100 µM
IC50 [2]: > 100 µM
IC50 [3]: > 100 µM

Oc1ccc(/C=C/c2cc(O)cc(O)c2)cc1 [RESVERATROL]
IC50 (HepG2 [1]): 80.3 µM
IC50 [2]: > 100 µM
IC50 [3]: 95.2 µM
Activity (HepG2 [34]): 31.9%
Activity (HepG2 [35]): 11.7%
Activity (HepG2 [36]): 56.3%
Activity (HepG2 [37]): 0%
inhibition (FHCC-98 [31]): Active
inhibition (FHCC-98 [32]): Active
